Reference: patent US11214803B2, “Modulators of YAP1 expression” (Ionis Pharmaceuticals, Inc., priority 2019, dated 2022)
Strand notation (5' to 3'): a small letter for the sugar, then the base; units joined by * are phosphorothioate-linked, units joined directly phosphodiester-linked; [ ] holds rarer units or linkages, { } end groups; capitals alone tell only the bases. k = constrained ethyl (cEt); [5mC] = 5-methylcytosine; d = 2'-deoxy (DNA)

Legend:
Yap1 mRNA [1] = assay: Antisense inhibition of human Yap1 in A-431 cells by cEt gapmers, single dose (Example 2, RTS4814); assay type: cell-based
Outline: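 Single-dose knockdown screen of 3-10-3 cEt phosphorothioate gapmers at 2,000 nM added by free uptake to A-431 cells. After roughly 48 h, RNA was isolated and Yap1 transcript measured by RT-qPCR, with results given as % UTC.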

Yap1 mRNA [2] = assay: Dose-dependent inhibition of human Yap1 in A-431 cells (Example 8, 10,000 cells per well, RTS4814); assay type: cell-based; conditions: free uptake, approximately 48 hours, RTS4814; for Yap1 mRNA, % UTC: A-431 cells, 10,000 cells per well; for IC50: A-431 cells, linear regression on log/linear plot
Outline: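 Yap1 mRNA, normalized to RIBOGREEN total RNA and expressed as % untreated control, was read with RTS4814 about 48 h after free-uptake oligonucleotide treatment of A-431 cells at 10,000 cells/well. IC50 derived by linear regression of log/linear data.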

[3] = Yap1 mRNA as percent of untreated control, A-431 cells, 3-10-3 cEt gapmers targeting SEQ ID NO.: 1, and 2, Table 30
[4] = Table 32, Yap1 mRNA, percent of untreated control, 3-10-3 cEt gapmers targeting SEQ ID NO.: 1, and 2

Substance | YAP1 (% UTC) (Yap1 mRNA [1]; [3]) | Yap1 mRNA, % UTC (Yap1 mRNA [2]; 31.3 nM) | Yap1 mRNA, % UTC (Yap1 mRNA [2]; 125.0 nM) | Yap1 mRNA, % UTC (Yap1 mRNA [2]; 500.0 nM) | Yap1 mRNA, % UTC (Yap1 mRNA [2]; 2000.00 nM) | IC50 (Yap1 mRNA [2]) | other results
1074672 (antisense k[5mC]*k[5mC]*kA*dA*dG*dT*dA*dG*d[5mC]*dT*dT*dT*dG*kA*kT*k[5mC]) [compound 1074672] | 6 % UTC | 34 % UTC | 18 % UTC | 10 % UTC | 7 % UTC | < 20 nM | –
1076370 (antisense kG*kA*kT*dT*dA*dT*dT*d[5mC]*dG*dG*dT*dA*dT*kT*kT*kT) [compound 1076370] | – | 46 % UTC | 12 % UTC | 4 % UTC | 2 % UTC | < 20 nM | YAP1 (% UTC) (Yap1 mRNA [1]; [4]): 2 % UTC
1074290 (antisense k[5mC]*kT*kG*dA*d[5mC]*dT*dG*dA*dT*dT*d[5mC]*dT*d[5mC]*kT*kG*kG) [compound 1074290] | – | 49 % UTC | 17 % UTC | 9 % UTC | 7 % UTC | < 20 nM | YAP1 (% UTC) (Yap1 mRNA [1]; [4]): 5 % UTC
1074576 (DNA kA*kT*kG*d[5mC]*dA*d[5mC]*dA*dT*dT*dA*dT*dG*dA*kA*k[5mC]*k[5mC]) [compound 1074576] | 7 % UTC | 69 % UTC | 41 % UTC | 14 % UTC | 9 % UTC | 100 nM | –
1075698 (kG*kT*kT*dT*dA*dA*dT*dA*dA*dT*d[5mC]*d[5mC]*dA*kT*kG*k[5mC]; antisense) [compound 1075698] | – | – | – | – | – | – | YAP1 (% UTC) (Yap1 mRNA [1]; [4]): 10 % UTC
1076435 (k[5mC]*kG*kT*dA*dA*dA*d[5mC]*dA*dT*d[5mC]*dA*dT*d[5mC]*kT*k[5mC]*kT; antisense) [compound 1076435] | – | – | – | – | – | – | YAP1 (% UTC) (Yap1 mRNA [1]; Table 33, Yap1 mRNA, percent of untreated control, 3-10-3 cEt gapmers targeting SEQ ID NO.: 1, and 2): 12 % UTC
1075656 (kA*kA*kA*dA*d[5mC]*dG*dG*dT*dT*dT*dT*dT*d[5mC]*kT*kA*kA; antisense) [Compound 1075656] | – | – | – | – | – | – | YAP1 (% UTC) (Yap1 mRNA [1]; Table 22, Yap1 mRNA as percent of untreated control, 3-10-3 cEt gapmers, single dose): 103 % UTC
716576 (kT*kG*kT*d[5mC]*dA*dG*dT*dT*dA*dT*d[5mC]*d[5mC]*dT*kA*kT*k[5mC]; antisense) [Compound 716576] | – | – | – | – | – | – | YAP1 (% UTC) (Yap1 mRNA [1]; Table 6, A-431 cells, 5,000 cells per well, free uptake, 2,000 nM modified oligonucleotide, approx. 48 hours, RTS4814, normalized to RIBOGREEN, Yap1 mRNA relative to untreated control cells): 52 % UTC
1076304 (kA*k[5mC]*kT*dA*dA*dT*dA*dA*dG*d[5mC]*d[5mC]*dT*d[5mC]*kA*k[5mC]*k[5mC]; antisense) [compound 1076304] | 30 % UTC | – | – | – | – | – | –
1074832 (kG*k[5mC]*kG*dA*dG*dG*dA*dT*dA*dA*dA*dA*dT*k[5mC]*k[5mC]*kA; antisense) [compound 1074832] | 17 % UTC | – | – | – | – | – | –
1075689 (k[5mC]*kA*kA*d[5mC]*dT*dA*dT*dA*d[5mC]*dA*dA*dG*dG*k[5mC]*kA*kA; antisense) [Compound 1075689] | – | – | – | – | – | – | YAP1 (% UTC) (Yap1 mRNA [1]; Table 23, Yap1 mRNA as percent of untreated control, 3-10-3 cEt gapmers, single dose): 4 % UTC
1074662 (antisense kG*kG*kT*dA*dG*dA*dA*dT*dT*dT*d[5mC]*dA*dT*kT*kA*k[5mC]) [Compound 1074662] | – | – | – | – | – | – | YAP1 (% UTC) (Yap1 mRNA [1]; Table 20, Yap1 mRNA, percent of untreated control, 3-10-3 cEt gapmers targeting SEQ ID NO.: 1 and 2): 30 % UTC
1074218 (antisense kA*kG*kG*dG*d[5mC]*dT*d[5mC]*d[5mC]*dT*dG*d[5mC]*dA*dG*kT*kG*k[5mC]) [Compound 1074218] | – | – | – | – | – | – | YAP1 (% UTC) (Yap1 mRNA [1]; Table 24, Yap1 mRNA as percent of untreated control, 3-10-3 cEt gapmers targeting SEQ ID NO.: 1, and 2): 70 % UTC
